From PubChem BioAssay AID2060493 (Molecular Pharmacology Branch, DTP, NCI, 2025)

Tested on: 616215-338-R-J1-PDC tumor spheroids, viability
Experiment: Anticancer human tumor 616215-338-R-J1-PDC patient-derived colon adenocarcinoma cell line growth inhibition [GQUAD]
Conditions: spheroids with HUVEC and MSC; for IC50: curve of first compound; for viability, T/C: stronger effect = lower value
Method in brief: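 Tumor cells were grown as complex spheroids with HUVEC endothelial cells and mesenchymal stem cells as stroma. G-quadruplex stabilizers were combined with targeted agents over half-log dilutions from near the clinical Cmax, or from 10 microM.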

[1] = second compound 0.0316 µM, first compound 0.0316 µM
[2] = second compound 0.0316 µM, first compound 0.1 µM
[3] = second compound 0.0316 µM, first compound 0.316 µM
[4] = second compound 0.0316 µM, first compound 1 µM
[5] = second compound 0.0316 µM, first compound 3.16 µM
[6] = second compound 0.0316 µM, first compound 10 µM
[7] = second compound 0.1 µM, first compound 0.0316 µM
[8] = second compound 0.1 µM, first compound 0.1 µM
[9] = second compound 0.1 µM, first compound 0.316 µM
[10] = second compound 0.1 µM, first compound 1 µM
[11] = second compound 0.1 µM, first compound 3.16 µM
[12] = second compound 0.1 µM, first compound 10 µM
[13] = second compound 0.316 µM, first compound 0.0316 µM
[14] = second compound 0.316 µM, first compound 0.1 µM
[15] = second compound 0.316 µM, first compound 0.316 µM
[16] = second compound 0.316 µM, first compound 1 µM
[17] = second compound 0.316 µM, first compound 3.16 µM
[18] = second compound 0.316 µM, first compound 10 µM
[19] = second compound 1 µM, first compound 0.0316 µM
[20] = second compound 1 µM, first compound 0.1 µM
[21] = second compound 1 µM, first compound 0.316 µM
[22] = second compound 1 µM, first compound 1 µM
[23] = second compound 1 µM, first compound 3.16 µM
[24] = second compound 1 µM, first compound 10 µM
[25] = second compound 3.16 µM, first compound 0.0316 µM
[26] = second compound 3.16 µM, first compound 0.1 µM
[27] = second compound 3.16 µM, first compound 0.316 µM
[28] = second compound 3.16 µM, first compound 1 µM
[29] = second compound 3.16 µM, first compound 3.16 µM
[30] = second compound 3.16 µM, first compound 10 µM
[31] = second compound 10 µM, first compound 0.0316 µM
[32] = second compound 10 µM, first compound 0.1 µM
[33] = second compound 10 µM, first compound 0.316 µM
[34] = second compound 10 µM, first compound 1 µM
[35] = second compound 10 µM, first compound 3.16 µM
[36] = second compound 10 µM, first compound 10 µM
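Further: spheroids exposed to agents for 7 days before readout.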
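Wherever viability, T/C is given: percent viability relative to DMSO vehicle control wells taken as 100%.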

CC1COCCN1c1cc(C2(O)CC3CCC(C2)O3)c2cnn(-c3ccn[nH]3)c2n1 (centres undefined) + Cc1cnc(CNC(=O)c2c(=O)c3ccc(N4CCCN(C)CC4)nc3n3c2sc2ccccc23)cn1
IC50 (second compound 0.0316 µM): 107 nM
IC50 (second compound 0.1 µM): < 31.6 nM
IC50 (second compound 0.316 µM): < 31.6 nM
IC50 (second compound 1 µM): < 31.6 nM
IC50 (second compound 3.16 µM): < 31.6 nM
IC50 (second compound 10 µM): < 31.6 nM
viability, T/C [1]: 76.3%
viability, T/C [2]: 52.5%
viability, T/C [3]: 29.4%
viability, T/C [4]: 27.6%
viability, T/C [5]: 25.2%
viability, T/C [6]: 16.3%
viability, T/C [7]: 38%
viability, T/C [8]: 35.2%
viability, T/C [9]: 33%
viability, T/C [10]: 24.1%
viability, T/C [11]: 20.8%
viability, T/C [12]: 25.4%
viability, T/C [13]: 43%
viability, T/C [14]: 30.8%
viability, T/C [15]: 23.8%
viability, T/C [16]: 19.7%
viability, T/C [17]: 18.9%
viability, T/C [18]: 13.2%
viability, T/C [19]: 29.5%
viability, T/C [20]: 32.9%
viability, T/C [21]: 22.2%
viability, T/C [22]: 28.2%
viability, T/C [23]: 22.3%
viability, T/C [24]: 17.6%
viability, T/C [25]: 42.9%
viability, T/C [26]: 22%
viability, T/C [27]: 18.1%
viability, T/C [28]: 20.7%
viability, T/C [29]: 15.8%
viability, T/C [30]: 5.2%
viability, T/C [31]: 24.5%
viability, T/C [32]: 28.1%
viability, T/C [33]: 29.5%
viability, T/C [34]: 14.7%
viability, T/C [35]: 11.2%
viability, T/C [36]: 0.29%

CC1COCCN1c1cc(-c2ccnn2C)c2ccnc(-c3ccn[nH]3)c2n1 (centres undefined) + Cc1cnc(CNC(=O)c2c(=O)c3ccc(N4CCCN(C)CC4)nc3n3c2sc2ccccc23)cn1
IC50 (second compound 0.0316 µM): < 31.6 nM
IC50 (second compound 0.1 µM): < 31.6 nM
IC50 (second compound 0.316 µM): < 31.6 nM
IC50 (second compound 1 µM): < 31.6 nM
IC50 (second compound 3.16 µM): < 31.6 nM
IC50 (second compound 10 µM): < 31.6 nM
viability, T/C [1]: 49.5%
viability, T/C [2]: 29.5%
viability, T/C [3]: 31.4%
viability, T/C [4]: 24.8%
viability, T/C [5]: 25.9%
viability, T/C [6]: 21.4%
viability, T/C [7]: 42.5%
viability, T/C [8]: 35.8%
viability, T/C [9]: 29.2%
viability, T/C [10]: 25.7%
viability, T/C [11]: 23.7%
viability, T/C [12]: 20.7%
viability, T/C [13]: 28.4%
viability, T/C [14]: 32.1%
viability, T/C [15]: 26%
viability, T/C [16]: 28.5%
viability, T/C [17]: 37.4%
viability, T/C [18]: 24.8%
viability, T/C [19]: 30.6%
viability, T/C [20]: 29.8%
viability, T/C [21]: 31.9%
viability, T/C [22]: 24%
viability, T/C [23]: 19.6%
viability, T/C [24]: 17.9%
viability, T/C [25]: 28.8%
viability, T/C [26]: 22.4%
viability, T/C [27]: 25.8%
viability, T/C [28]: 24.4%
viability, T/C [29]: 22.5%
viability, T/C [30]: 17%
viability, T/C [31]: 30.2%
viability, T/C [32]: 22.7%
viability, T/C [33]: 23%
viability, T/C [34]: 19.7%
viability, T/C [35]: 24.2%
viability, T/C [36]: 19.3%
